Values joined by “and” are separate entries in the source; they are usually repeats but may differ in a detail not shown here. Identical values can stand only once. Like-named read-outs stand apart in the source and are kept apart here.
How the values were obtained:
[1] = isotretinoin powder, supplier's statement; cited from earlier work
[2] = Particle size analysis of isotretinoin powder by laser scattering granulometer, before and after dispersion in liquid media; assay type: physicochemical
Protocol: The ability of glycol ethers to stabilize the particle size of an active principle was established by means of studies aimed at comparing the particle size of an isotretinoin powder supposed to have, according to its supplier, a median of 20 μm, before and after dispersion in 5 different liquid media consisting, respectively, of:
The particle size of the isotretinoin powder before dispersion in the liquid media, ie in dry form, was analyzed on samples of 2 g of powder (the vehicle in this case being compressed air), whereas its particle size after dispersion in the various liquid media was analyzed on samples of 20 ml containing 2% (w/v) of this powder, except in the case of the oily mixture, in which the content of isotretinoin powder in the samples was 6.5% (w/v).
All the particle size analyses were carried out using a Mastersizer Banc Long laser scattering granulometer (Malvern Instruments Ltd company) and an MS1 sampler from the same company.

[3] = oral, cited from earlier work

| Median of the particle size ([2]; after dispersion in Labrafac PG (propylene glycol dicaprylocaprate), 2% (w/v)) [μm] | Median of the particle size ([2]; after dispersion in Labrasol (caprylocapric macrogolglycerides), 2% (w/v)) [μm] | Median of the particle size ([2]; after dispersion in Transcutol (diethylene glycol monoethyl ether, DGME), 2% (w/v)) [μm] | Median of the particle size ([2]; after dispersion in oily mixture of the Roaccutane type (yellow wax, soybean oils, partially hydrogenated plant oil, medium-chain triglyceride), 6.5% (w/v)) [μm] | Median of the particle size ([2]; isotretinoin powder in dry form, before dispersion (2 g samples, compressed air)) | Compound | Median particle size according to supplier [1] [μm] | bioavailability ([3]; soft capsules (Roaccutane), suspension in oily vehicle) | bioavailability ([3]; gel capsules of 10 and 25 mg, on average) [%] |
| --- | --- | --- | --- | --- | --- | --- | --- | --- |
| 193.15 | 139.77 | 20.86 | 82.92 | 20 μm and 19.49 μm | CC1=C(/C=C/C(C)=C/C=C/C(C)=C\C(=O)O)C(C)(C)CCC1 [isotretinoin, 13-cis-retinoic acid] | 20 | about 25% | – |
| – | – | – | – | – | COc1cc(C)c(/C=C/C(C)=C/C=C/C(C)=C/C(=O)O)c(C)c1C [acitretin] | – | – | 60 |
